Test results as given in US20070032551A1, “Salt of dimethylaminomethyl-phenyl-cyclohexane and crystalline forms thereof” (GRUENENTHAL GMBH, priority 2005, published 2007).

Legend:
[1] = Stability under pressure, pressing of tablets (Example E5); assay type: physicochemical; conditions: 100 MPa in vacuo, 60 minutes
Experimental: The fumarate prepared according to Example C3 is introduced into a tablet press and pressed to a tablet under a pressure of 100 MPa in vacuo for 60 minutes.

[2] = Stability under grinding conditions (Example E4); assay type: physicochemical; conditions: for crystalline form after trituration: pestle in a mortar dish, 5 minutes; for crystalline form after grinding: agate ball mill, 20 Hz, room temperature, 180 minutes
Experimental: The fumarate prepared according to Example C3 is triturated with a pestle in a mortar dish for 5 minutes.
The fumarate prepared according to Example A1 is introduced into an agate ball mill (Retsch MM200 mixing mill with 5 mm agate balls) and ground at 20 Hz and room temperature for 180 minutes.

[3] = Solubility (general statement)
[4] = Storage at room temperature in high and low atmospheric humidity, crystal form by Raman (Examples E1-E3, B1); assay type: physicochemical; conditions: for crystalline form after storage (Raman) / crystalline form after storage: room temperature
Experimental: Unless stated otherwise, the crystal forms are determined by comparison of the Raman spectra.
a) 30 mg of the amorphous fumarate prepared according to Example Bi are stored at room temperature and 75% relative atmospheric humidity for 5 days.
b) 30 mg of the amorphous fumarate prepared according to Example B2 are stored at room temperature and 90% relative atmospheric humidity for 3 days.
c) 30 mg of the amorphous fumarate prepared according to Example B2 are stored at room temperature and 53% relative atmospheric humidity for 2 months.
d) 30 mg of the amorphous fumarate prepared according to Example B2 are stored at room temperature and 22% relative atmospheric humidity for 2 months. Thereafter, the amorphous product is still present.
The fumarate prepared according to Example C3 is stored at room temperature and 75% relative atmospheric humidity, and after 3 days and 1, 2, 3, 4 and 8 weeks samples are analyzed by means of Raman spectroscopy.
The crystalline form B prepared according to Example A1 is stored at room temperature and 75% relative atmospheric humidity, and after 3 days and 1, 2, 3, 4 and 8 weeks samples are analyzed by means of Raman spectroscopy.

[5] = Stability at elevated temperature, HPLC and FT Raman (Example E7); assay type: physicochemical; conditions: for stability at elevated temperature (in words): open and closed vessels
Experimental: The crystalline forms are stored in open and closed vessels and possible changes are measured as stability parameters by chromatography (HPLC) after a given time.

[6] = Water uptake by dynamic vapor sorption (Example E6); assay type: physicochemical; conditions: 25° C.; for crystalline form present at the end of the DVS measurement: fumarate; for water uptake: DVS
Experimental: The water uptake is determined by means of dynamic water vapor uptake (dynamic vapor sorption, DVS) with the DVS-1 apparatus from Surface Measurement Systems Ltd. The sample is placed in a platinum crucible on the tip of a microbalance. The sample is then first equilibrated at 50% relative atmospheric humidity and subsequently subjected to a predefined measurement program. The temperature is 25° C. The change in weight of the sample is determined.

[7] = Hygroscopicity (general statement); assay type: physicochemical
[8] = Bioavailability (general statement)
[9] = Damp storage and drying of fumarate and hydrochloride (Example E9); assay type: physicochemical; conditions: for change in the crystalline form (X-ray diffraction diagrams): after damp storage and drying; for DW (dry weight), starting value / WC (Karl Fischer water content), starting value: before the start of the storage
Experimental: Fumarate and hydrochloride according to Example E8 are first stored at 25° C. and 75% and 95% relative atmospheric humidity for 7 days and thereafter at 50° C. in vacuo in a drying cabinet for 7 days. Before the start of the storage, the X-ray diffraction diagrams (XRD), DSC for determination of transition points (Tp) and dry weight (DW) and the Karl Fischer water content (WC) are determined, and the same values are determined after the damp storage and drying. The X-ray diffraction diagrams show no change in the crystalline forms A and D after damp storage and drying. The starting values for the hydrochloride are Tp=116.27° C., DW=6.35% and WC=8.00%. The starting values for the fumarate are Tp=93.11° C. and 175.14° C., DW=0 and WC=0.2%. The results are given in Tables 7 (75% relative atmospheric humidity) and 8 (95% relative atmospheric humidity).

[10] = Water uptake of fumarate and hydrochloride by DVS (Example E8); assay type: physicochemical; conditions: 25° C.
Experimental: The water uptake is determined by means of dynamic water vapor uptake (dynamic vapor sorption, DVS) with the DVS-1 apparatus from Surface Measurement Systems Ltd. The sample is placed in a platinum crucible on the tip of a microbalance. The sample is then first equilibrated at 50% relative atmospheric humidity and subsequently subjected to a predefined measurement program. The temperature is 25° C. The change in weight of the sample after a stepwise increase in the relative atmospheric humidity by in each case 10% to 90% is determined.

[11] = 75% relative atmospheric humidity, after 8 weeks, fumarate
[12] = 40° C./75% r.h., 1 week, fumarate
[13] = 60° C. (closed), 1 week, fumarate
[14] = 60° C. (closed), 4 weeks, fumarate
[15] = 60° C./75% r.h., 4 weeks, fumarate
[16] = 75% r.h. storage, then drying at 50° C. in vacuo for 7 days
[17] = 95% r.h. storage, then drying at 50° C. in vacuo for 7 days
[18] = after damp storage, 25° C., 75% relative atmospheric humidity, 7 days
[19] = after damp storage, 25° C., 95% relative atmospheric humidity, 7 days

SMILES	crystalline form after pressing to a tablet [1]	solubility in polar solvents [3]	crystalline form after storage (Raman) [4, 11]	HPLC [5, 12]	HPLC [5, 13]	HPLC [5, 14]	HPLC [5, 15]	stability at elevated temperature (in words) ([5]; fumarate)	HPLC ([5]; −18° C. (reference), 4 weeks)	crystalline form present at the end of the DVS measurement [6]	water uptake ([6]; measurement cycle)	hygroscopicity [7]	WC (%) [9, 16]	WC (%) [9, 17]	change in the crystalline form (X-ray diffraction diagrams) [9]	WC (%) [9, 18]	WC (%) [9, 19]	DW (dry weight), starting value [9]	WC (Karl Fischer water content), starting value [9]	other results
CN(C)C[C@@H]1CCCC[C@H]1c1cccc(O)c1.O=C(O)/C=C/C(=O)O [crystalline form A, (+)-(1R,2R)-3-[2-(dimethylamino)methyl-(cyclohex-1-yl)]-phenol fumarate]	mixture of the crystalline forms A and B	very good	crystalline form B is also present	99.5%	99.9%	99.6%	99.3%	very stable in respect of chemical stability and crystal form	100%	substantially the crystalline form B	about 0.2 wt. %	–	–	–	–	–	–	–	–	crystalline form after trituration ([2]; listed as Example C3, fumarate): mixture of the crystalline form A and B; crystalline form after storage (Raman) ([4]; 75% relative atmospheric humidity, after 3 days): converted into the crystalline form B; FT Raman (determination of the crystalline form) ([5]; 60° C. (closed), 1 week): A and B; FT Raman (determination of the crystalline form) ([5]; 60° C. (closed), 4 weeks): A and B; FT Raman (determination of the crystalline form) ([5]; −18° C. (reference), 4 weeks): A and B
CN(C)CC1CCCCC1c1cccc(O)c1.Cl (centres unmarked) [3-[2-(dimethylamino)methyl-(cyclohex-1-yl)]-phenol hydrochloride, reference compound]	–	–	–	–	–	–	–	–	–	–	–	decidedly hygroscopic	–	–	–	–	–	–	–	–
CN(C)CC1CCCCC1c1cccc(O)c1.O=C(O)/C=C/C(=O)O (centres unmarked) [3-[2-(dimethylamino)methyl-(cyclohex-1-yl)]-phenol fumarate]	–	–	–	–	–	–	–	–	–	–	–	not hygroscopic	–	–	–	–	–	–	–	solubility ([3]; particularly in polar and protic solvents, including water): good; bioavailability [8]: good
CN(C)C[C@@H]1CCCC[C@H]1c1cccc(O)c1.O=C(O)/C=C/C(=O)O [crystalline form B, (+)-(1R,2R)-3-[2-(dimethylamino)methyl-(cyclohex-1-yl)]-phenol fumarate]	mixture of the crystalline forms A and B	very good	practically unchanged	100.0%	99.0%	100.6%	99.1%	very stable in respect of chemical stability	100%	unchanged	about 0.2 wt. %	not hygroscopic	0.30%	0.30%	no change	0.50%	0.50%	0%	0.2%	crystalline form after grinding ([2]; fumarate): mixture of the crystalline forms A and B; crystalline form after grinding ([2]; listed as Example A1, fumarate): mixture of the crystalline form A and B; crystalline form after trituration ([2]; fumarate): unchanged; release of absorbed moisture on desorption ([10]; at about 10% relative atmospheric humidity): released again completely; water uptake ([10]; stepwise increase of relative atmospheric humidity by 10% to 90%): 0.13%
CN(C)C[C@@H]1CCCC[C@H]1c1cccc(O)c1.O=C(O)/C=C/C(=O)O [amorphous form, (+)-(1R,2R)-3-[2-(dimethylamino)methyl-(cyclohex-1-yl)]-phenol fumarate]	–	–	–	–	–	–	–	–	–	crystalline form A	–	–	–	–	–	–	–	–	–	form after storage ([4]; 22% relative atmospheric humidity and 25° C., after 2 months): still amorphous; crystalline form after storage ([4]; 22% relative atmospheric humidity, 2 months): still present; crystalline form after storage ([4]; 53% relative atmospheric humidity, 2 months): converted completely into the crystalline form B; crystalline form after storage ([4]; 75% relative atmospheric humidity, 5 days): converted completely into the crystalline form B; crystalline form after storage ([4]; 90% relative atmospheric humidity, 3 days): converted completely into the crystalline form B; water uptake ([6]; up to about 77% relative atmospheric humidity): about 6.5 wt. %
CN(C)C[C@@H]1CCCC[C@H]1c1cccc(O)c1.Cl [Hydrochloride, (+)-(1R,2R)-3-[2-(Dimethylamino)methyl-(cyclohex-1-yl)]-phenol hydrochloride]	–	–	–	–	–	–	–	–	–	–	–	–	6.00%	6.60%	no change	8.50%	8.50%	6.35%	8.00%	DW (%) [9, 16]: 6.12%; DW (%) [9, 17]: 6.74%; DW (%) [9, 18]: 5.92%; DW (%) [9, 19]: 7.84%; water uptake in total ([10]; 90% relative atmospheric humidity): about 5 wt. %; water uptake ([10]; relative atmospheric humidity increased to about 75%): about 2 wt. %; water released on desorption, in total ([10]; stepwise lowering of relative atmospheric humidity by 10%): 8.5%
